Assay results published in paper PMC11843658 (Journal of Enzyme Inhibition and Medicinal Chemistry, 2025).

How the values were obtained:
C42B cells = test: CCK8 assay, C42B prostate cancer cells; type: cell-based; conditions: Homo sapiens, 10 μM, 48 h, read-out: cell viability rate
Description: (§1) C42B, PC3, Caco-2, HepG2, MCF7, HL-60, 8505 C, OVCAR-3, and A549 were cultured to screen the broad-spectrum antiproliferative activity of compound 14. For above cell lines, three thousand cells per well were seeded in the 96-well plate and treated by compound 14 for 48 or 72 h at different concentrations (0, 5, 10, and 20 μM). In addition, HepG2, HEP3B, HUH6, and HUH7 were cultured to screen its antiproliferative activity against liver cancer cell lines. For these liver cancer cell lines, two thousand cells per well were seeded in the 96-well plate and treated by compound 14 for 48 h at different concentrations (0, 0.625, 1.25, 2.5, and 5 μM). Then, 10 μl of CCK8 was added into each well and cells were incubated in a humidified atmosphere of 5% CO2 at 37 °C for 4 h. The 96-well plate was measured with a microplate reader (Bio-Tek, San Diego, CA) at a wavelength of 450 nm to calculate IC50 values.

Caco-2 cells = test: CCK8 assay, Caco-2 colon cancer cells; type: cell-based; conditions: Homo sapiens, 10 μM, 48 h, read-out: cell viability rate
Description: as §1

HepG2 cells [1] = test: CCK8 assay, HepG2 liver cancer cells; type: cell-based; conditions: Homo sapiens
Description: as §1

MCF7 cells = test: CCK8 assay, MCF7 breast cancer cells; type: cell-based; conditions: Homo sapiens, 10 μM, 48 h, read-out: cell viability rate
Description: as §1

HL-60 cells = test: CCK8 assay, HL-60 leukaemia cells; type: cell-based; conditions: Homo sapiens, 10 μM, 48 h, read-out: cell viability rate
Description: as §1

8505 C cells = test: CCK8 assay, 8505 C thyroid cancer cells; type: cell-based; conditions: Homo sapiens, 10 μM, 48 h, read-out: cell viability rate
Description: as §1

A549 cells = test: CCK8 assay, A549 lung cancer cells; type: cell-based; conditions: Homo sapiens, 10 μM, 48 h, read-out: cell viability rate
Description: as §1

HUH6 cells = test: CCK8 assay, HUH6 liver cancer cells; type: cell-based; conditions: Homo sapiens, HuH-6, CCK8, 48 h, 0-5 μM, read-out: IC50, antiproliferative activity
Description: as §1

HUH7 cells = test: CCK8 assay, HUH7 liver cancer cells; type: cell-based; conditions: Homo sapiens, Huh-7, CCK8, 48 h, 0-5 μM, read-out: IC50, antiproliferative activity
Description: as §1

MAO-A = biological target: T1, MAO-A (Homo sapiens, UniProt P21397); test: Inhibitory activity against MAO-A (kynuramine); type: biochemical; conditions: tested at 250, 500, and 1000 nM
T1 construct: purchased Servicebio (Wuhan, China)
Description: (§2) In order to analyse the enzymatic selectivity of compound 14, MAO-A/B was purchased from Servicebio (Wuhan, China). MAO-A was dissolved in phosphate buffer (0.1 M, pH = 7.4) to get MAO-A enzymatic buffer with a concentration of 0.006 mg/ml. MAO-B was also dissolved in phosphate buffer (0.1 M, pH = 7.3) to get MAO-B enzymatic buffer with a concentration of 0.015 mg/mL. Kynuramine dihydrochloride (Servicebio, Wuhan, China) was used to get the assay buffer with a concentration of 40 μM for MAO-A and 20 μM for MAO-B. An aliquot of 97 μl of assay buffer and 3 μl of compound 14 at different concentrations (250, 500, and 1000 nM) were added into each well on the 96-well black plate. The plate was incubated at 37 °C for 20 min, and 80 μl of 2 N sodium hydroxide was added into each well to stop the reaction. The fluorescence of each well was measured using a microplate reader (Agilent Technologies Inc., CA) with an excitation at 310 nm and an emission at 380 nm.

MAO-B = biological target: T2, MAO-B (Homo sapiens, UniProt P27338); test: Inhibitory activity against MAO-B (kynuramine); type: biochemical; conditions: tested at 250, 500, and 1000 nM
T2 construct: purchased Servicebio (Wuhan, China)
Description: as §2

H3K4me1/2 = test: Western blotting of LSD1 substrates H3K4me1/2; type: cell-based; conditions: Western blotting, 0, 0.5, 1, and 2 μM, 48 h
Description: (§3) Compound 14 at different concentrations (0, 0.5, 1, and 2 μM) was added into cancer cells solution and incubated for 48 h. Total protein was isolated from cells using RIPA buffer (Servicebio, Wuhan, China). An amount of […] of total protein were separated by sodium dodecyl sulphate polycrylamide gel electrophoresis and transferred to PVDF membranes. 5% non-fat milk (Servicebio, Wuhan, China) was used to block PVDF membranes and incubated with primary antibody for 12 h at 4 °C. Then, PVDF membranes were washed by TBST buffer (Servicebio, Wuhan, China) and incubated with secondary antibody at room temperature for 2 h. The enhanced chemiluminescence kit (Servicebio, Wuhan, China) was used to visualise immunoreactive bands. H3, GAPDH, Vimentin, N-cadherin, and E-cadherin as antibodies were purchased from Servicebio (Wuhan, China). Catalogue numbers of H3, GAPDH, Vimentin, N-cadherin, and E-cadherin as antibodies in Servicebio are GB11102, GB15004, GB11192, GB12135, and GB12868, respectively. H3K4me1 and H3K4me2 were obtained from Proteintech Group, Inc (Wuhan, China). Catalogue numbers of H3K4me1 and H3K4me2 as antibodies in Proteintech Group are 91289 and 39679, respectively.

HepG2 cells [2] = test: Wound healing and transwell assays; type: cell-based, Human; conditions: 48 h, compared to control group
Description: Cancer cells were seeded into a 6-well plate for 12 h and each well was scratched using a sterile micropipette tip. Cellular debris was removed by PBS solution (Servicebio, Wuhan, China), and compound 14 at different concentrations (0, 0.5 μM, 1 μM, and 2 μM) was added. The 6-well plate was incubated for 48 h and photographed on a microscope.
Cancer cells were seeded into a Transwell 24-well plate (Corning, NY) and compound 14 was added. About 20% foetal bovine serum and 1% heat-inactivated foetal bovine serum were respectively added into the lower and upper chamber. The 24-well plate was incubated for 48 h at 37 °C, and it was washed by water. Cancer cells were fixed with cold ethanol for 20 min and stained with haematoxylin solution (Servicebio, Wuhan, China).

[3] = test system: E-cadherin, N-cadherin, and Vimentin in HepG2 cells; test: Western blotting of epithelial–mesenchymal transition-related proteins; type: cell-based, Human
Description: as §3

[4] = Toxicity in xenograft study: weight of mice, haematoxylin and eosin staining of organs; type: in vivo; conditions: 60 mg/kg by gavage every day for 21 days, vs control group
LSD1 = LSD1 (Homo sapiens, UniProt O60341); test: LSD1 screening assay kit (enzymatic activity); type: biochemical; set-up: purchased Cayman Chemical (Ann Arbor, MI); conditions: fluorescence, read-out: IC50 against LSD1
Description: After the incubation for 30 min at 37 °C, a mixture of horseradish peroxidase solution (20 μl) and fluorometric substrate solution (10 μl) was added to each well. Then, the 96-well plate was incubated for 15 min at 37 °C. Finally, the fluorescence of each well in the 96-well plate was measured at an emission wavelength of 590 nm and an excitation wavelength of 530 nm by a fluorimeter (Agilent Technologies Inc., Palo Alto, CA). Seclidemstat, a famous LSD1 inhibitor, was used as the control drug in this assay.

T2 sequence (P27338 whole entry, species assumed): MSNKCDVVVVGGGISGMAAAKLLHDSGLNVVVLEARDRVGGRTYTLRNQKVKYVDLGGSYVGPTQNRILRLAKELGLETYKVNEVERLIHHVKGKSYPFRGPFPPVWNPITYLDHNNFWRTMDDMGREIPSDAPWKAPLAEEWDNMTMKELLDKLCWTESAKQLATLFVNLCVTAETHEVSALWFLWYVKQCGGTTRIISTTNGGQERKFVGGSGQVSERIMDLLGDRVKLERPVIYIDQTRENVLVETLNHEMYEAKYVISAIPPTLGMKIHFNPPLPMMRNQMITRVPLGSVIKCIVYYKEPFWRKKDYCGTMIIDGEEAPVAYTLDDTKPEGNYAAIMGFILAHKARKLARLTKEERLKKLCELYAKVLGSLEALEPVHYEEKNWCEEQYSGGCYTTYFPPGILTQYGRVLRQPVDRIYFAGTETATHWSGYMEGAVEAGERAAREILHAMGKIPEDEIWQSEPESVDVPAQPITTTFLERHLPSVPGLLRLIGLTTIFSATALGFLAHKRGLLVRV
T1 sequence (P21397 whole entry, species assumed): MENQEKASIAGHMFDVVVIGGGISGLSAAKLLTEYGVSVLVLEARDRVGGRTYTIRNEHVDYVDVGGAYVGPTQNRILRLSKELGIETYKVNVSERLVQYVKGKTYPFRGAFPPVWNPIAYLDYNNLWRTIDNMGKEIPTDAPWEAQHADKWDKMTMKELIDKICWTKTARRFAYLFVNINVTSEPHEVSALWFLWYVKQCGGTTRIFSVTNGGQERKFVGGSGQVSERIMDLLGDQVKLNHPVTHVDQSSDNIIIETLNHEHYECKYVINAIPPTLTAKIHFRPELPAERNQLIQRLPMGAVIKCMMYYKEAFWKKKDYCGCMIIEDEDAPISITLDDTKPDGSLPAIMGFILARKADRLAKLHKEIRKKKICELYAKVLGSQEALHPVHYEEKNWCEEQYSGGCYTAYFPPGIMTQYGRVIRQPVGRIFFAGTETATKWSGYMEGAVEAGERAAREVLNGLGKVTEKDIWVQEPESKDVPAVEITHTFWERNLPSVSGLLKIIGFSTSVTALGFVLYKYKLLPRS

In the case of `COc1ccc(CN(C(=O)CCN2C(=O)CCCC2=O)c2cc(OC)c(OC)c(OC)c2)cc1` [Compound 14, 3-(2,6-dioxopiperidin-1-yl)-N-(4-methoxybenzyl)-N-(3,4,5-trimethoxyphenyl)propanamide], the viability at 10 µM (C42B cells) is reported as 88%, the viability at 10 µM (Caco-2 cells) is reported as 72.3% and the viability at 10 µM (HepG2 cells [1]; 10 μM, 48 h, read-out: cell viability rate) is reported as 14.2%. The IC50 (HepG2 cells [1]; CCK8, 48 h, 0-5 μM, read-out: IC50, antiproliferative activity) was 0.93 µM, the viability at 10 µM (MCF7 cells) was 49.7% and the viability at 10 µM (HL-60 cells) was 35.7%. The viability at 10 µM (8505 C cells) was 49.7%, the viability at 10 µM (A549 cells) was 41.1% and the IC50 (HUH6 cells) was 1.43 µM. It also gave an IC50 (HUH7 cells) of 4.37 µM, an IC50 (MAO-A) greater than 1 µM and an IC50 (MAO-B) greater than 1 µM. For the same compound, the “methylation levels of H3K4me1 and H3K4me2” value (H3K4me1/2) was “increase the methylation levels of H3K4me1 and H3K4me2”, the “migration of HepG2 cells” value (HepG2 cells [2]) was “significantly suppresses the migration of HepG2 cells” and the “expression level of E-cadherin” value [3] was “increases the expression level of E-cadherin”. For the same compound, the “expression levels of N-cadherin and Vimentin” value [3] was “decreases the expression levels of N-cadherin and Vimentin”, the “body weight of nude mice” value [4] was “did not show significant changes in body weight” and the “haematoxylin and eosin staining of liver, spleen, lung, and kidney” value [4] was “no morphological differences”. The IC50 (LSD1) was 0.18 µM.
